Laboratory results reported in patent publication US5487899A, “Wound healing” (Jess Clarke & Sons, Inc., priority 1994, dated 1996).

Tests used:
[1] = tested on: croton oil-induced ear swelling; assay: croton oil-induced ear swelling (Example 4); assay type: in vivo, ICR-HSD mice; details: Aspirin 100 μg, topical, 6 h
Method: Four groups (10 mice per group) of adult male ICR-HSD mice was given topically 25 μg/per 10 μl croton oil solutions. This irritant was applied to the inner surface of the animal's right ear, and the left ear was not treated and used as a control. One-half hour after the application of the croton oil irritant, solutions were added topically to reduce inflammation; the solutions were 1% aspirin, 2% Aloe and a solution that had both aspirin and aloe.
Six hours after the topical application of croton oil solutions, a 6 mm biopsy punch specimen was taken from each ear, weighed, and the weight differences between the two were compared to determine the amount of inflammation remaining on the right ear.

open wounds = assay: Open wound healing assay (Example 5); assay type: in vivo, ICR mice; details: daily subcutaneous, Saline control 60.0 ± 8.3
Method: Adult male ICR mice (30 g, 15 animals/group) were anesthetized with ether and shaved on both sides of the back. A sterile 6 mm Baker biopsy punch was used to induce a wound on each side of the vertebral column. Anterior-posterior wound diameter measurements were made using a vernier caliper on days 0, 4 and 7. Three treatment groups received daily subcutaneous injections of a gibberellic acid (GA3) solution at dosages of 2, 10 and 100 mg/Kg, respectively. Control mice received daily injections of saline on a 10 ml/Kg basis. Standard errors for each mean value was calculated. The student's "t" test was used to determine significant differences between treatment and control groups. An analysis of variance (ANOVA) was also calculated to determine the statistical significance of the study as a whole, and gave a Fisher ratio at 16.48 which is significant at p<0.001.

wound = assay: Wound tensile strength assay (Example 6); assay type: in vivo,  mice; details: 50 mg/kg (each) × 4, subcutaneous, 6 h after day 4 injection
Method: While tensile strength of wounds is measured in terms of the load applied per unit of cross section area, the breaking strength is the measure of force required to break a wound of tissue without regard to dimensions. While tensile strength is not a function of the incision length, breaking strength is. The measurements of force required to pull a wound apart differ chiefly in the manner in which the force is applied and the sophistication of the force measurement. In the data recorded herein and in the data collected in the making of the present invention, we used a conventional plastic syringe calibrated to measure […] of air injected into the peritoneal cavity of the mouse. […] Elastic bands are first placed on over the shoulders and hips of the animal to contain the injected air into a defined area of the body and to reduce error involving underlying tissue of the peritoneal cavity, and air is injected into the animal until the wound is disrupted at which time the volume of air is recorded. […]
Each wound was closed with a 9 mm wound clip at 0.25-inch spacings for a total of 3 clips per wound. […] Six hours after the day 4 injection, the tensile strength of wounds was measured by injecting air into the peritoneal cavity from a syringe as described above.

| Structure (SMILES) | Inhibition (%) of croton oil-induced ear swelling [1] [%] | decrease (%) in wound diameter (open wounds; 2 mg/kg) [%] | decrease (%) in wound diameter (open wounds; 10 mg/kg) [%] | decrease (%) in wound diameter (open wounds; 100 mg/kg) [%] | increase (%) in wound tensile strength (wound) [%] |
| --- | --- | --- | --- | --- | --- |
| CC(=O)Oc1ccccc1C(=O)O [Aspirin] | 23.7 ± 3.1 |  |  |  |  |
| C=C1C[C@]23C[C@@]1(O)CC[C@H]2[C@@]12C=C[C@H](O)[C@@](C)(C(=O)O1)[C@H]2[C@@H]3C(=O)O [Gibberellin, gibberellic acid] |  | 65.3 ± 11.3 | 71.6 ± 12.1 | 81.7 ± 7.0 | 36.1 ± 1.5 |
